From PMC4700278, “Molecular and Biochemical Analysis of the Estrogenic and Proliferative Properties of Vitamin E Compounds” (Frontiers in Oncology, 2016)

Assays:
ERα = target: T1, ERα (Homo sapiens, UniProt P03372); test: Estrogen receptor-binding assay, competition with [3H]-17β-estradiol; parameters: expressed in transfected cells; host or cells: Cos-7; conditions: extracts of cos-7 cells expressing human ERα; 2 nM [3H]-E2; tocols 1 μM to 1 mM; N.M. = not measurable
T1 sequence (P03372 1-595): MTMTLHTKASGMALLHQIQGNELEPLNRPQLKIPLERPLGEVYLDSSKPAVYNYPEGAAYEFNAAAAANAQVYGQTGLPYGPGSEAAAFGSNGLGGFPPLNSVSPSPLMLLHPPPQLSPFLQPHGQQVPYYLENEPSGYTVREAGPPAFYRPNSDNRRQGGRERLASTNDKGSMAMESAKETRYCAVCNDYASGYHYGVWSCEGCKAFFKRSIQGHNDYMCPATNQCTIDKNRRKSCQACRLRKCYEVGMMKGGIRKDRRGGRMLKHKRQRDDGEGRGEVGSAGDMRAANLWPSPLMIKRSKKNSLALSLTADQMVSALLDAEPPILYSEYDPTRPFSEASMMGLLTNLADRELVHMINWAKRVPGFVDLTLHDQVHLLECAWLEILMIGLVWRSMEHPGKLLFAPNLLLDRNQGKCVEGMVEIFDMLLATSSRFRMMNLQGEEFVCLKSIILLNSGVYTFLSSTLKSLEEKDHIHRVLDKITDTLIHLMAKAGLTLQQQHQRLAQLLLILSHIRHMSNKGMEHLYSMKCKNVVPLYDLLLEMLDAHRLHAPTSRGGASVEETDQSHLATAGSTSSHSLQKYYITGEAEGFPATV

ERβ = ERβ (Homo sapiens, UniProt Q92731); test: as above; parameters: expressed in transfected cells; host or cells: Cos-7; conditions: extracts of cos-7 cells expressing human ERβ; 2 nM [3H]-E2; tocols 1 μM to 1 mM; N.M. = not measurable
ERβ, sequence (Q92731 whole entry): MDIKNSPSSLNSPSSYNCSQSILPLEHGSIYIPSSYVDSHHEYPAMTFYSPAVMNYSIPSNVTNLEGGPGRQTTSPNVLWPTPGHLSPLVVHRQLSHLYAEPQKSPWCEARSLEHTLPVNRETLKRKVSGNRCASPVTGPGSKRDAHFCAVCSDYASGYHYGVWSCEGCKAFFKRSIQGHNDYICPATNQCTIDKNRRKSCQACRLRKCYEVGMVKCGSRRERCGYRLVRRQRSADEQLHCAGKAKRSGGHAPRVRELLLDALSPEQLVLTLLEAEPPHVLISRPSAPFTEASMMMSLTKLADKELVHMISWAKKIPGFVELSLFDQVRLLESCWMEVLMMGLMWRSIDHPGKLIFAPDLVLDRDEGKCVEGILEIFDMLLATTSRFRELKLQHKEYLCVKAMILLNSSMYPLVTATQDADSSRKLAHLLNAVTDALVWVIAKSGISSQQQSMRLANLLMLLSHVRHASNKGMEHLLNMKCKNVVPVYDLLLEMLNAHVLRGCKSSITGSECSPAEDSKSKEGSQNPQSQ

[1] = system: ER-dependent transcription in MELN cells; test: ERE-luciferase reporter assay in MELN cells (MCF-7 stably transfected with ERE-β-globin-tk-Luc); assay type: cell-based, human; conditions: for stimulation of luciferase expression (ER-dependent transcription): 500 μM (tocols 10 to 500 μM)
Description: MELN cells were established by transfecting ER(+) MCF-7 cells with the ERE-β-globin-tk-Luc-SV-Neo plasmid ([36]). HELN cells were generated by transfection of ER(−) HeLa cells with this plasmid. The HELN-ERα, HELN-ERβ, HELN-ΔAB-ERα, and HELN-ΔAB-ERβ cell lines then underwent a second transfection with the corresponding pSG5-puro plasmids (pSG5-ERα-puro, pSG5-ERβ-puro, pSG5-ΔAB-ERα-puro, and pSG5-ΔAB-ERβ-puro, respectively) and expressed wild-type or mutated ERα or ERβ ([39], [40]). […] Comparison of the activities toward hERα and hERβ with the truncated ΔAB-ERα and ΔAB-ERβ provides a powerful model to identify partial ER agonists (requiring ligand-independent AF-1 to induce maximal ER activation). […] Cells were grown routinely in DMEM growth medium supplemented with 5% FBS (Gibco BRL, Life Technologies, Cergy pontoise, France). Cells were incubated at 37°C in a humidified 5% CO2 incubator. For experiments, cells were grown for 5 days in phenol red-free medium, containing 6% dextran-coated charcoal-treated FCS (DCC-FCS) with penicillin–streptomycin. Medium was changed after 2 days. On day 5, cells were treated or not with the compounds, which were dissolved in ethanol. For each condition, 15 × 10^3 cells were seeded per well in 12-well plates and treated, as described above, for 8 h in a final volume of 0.5 ml. At the end of the treatment, cells were washed with PBS and lysed in 150 μl lysis buffer (Promega, Charbonnières, France). Luciferase activity was measured using the luciferase assay reagent (Promega), according to the manufacturer’s instructions. Protein concentrations were measured using the Bradford technique ([41]) to normalize the luciferase activity data. For each condition, average luciferase activity was calculated from the data of three independent wells.
Figure 3 Measurement of estrogenicity of tocols in vitro. (A) Dose–response curve of the effect of tocols on MCF-7 cells stably transfected with the ERE-β-globin-tk-Luc plasmid (MELN cells). […] Data shown are the mean values ± SEM from three independent experiments. […] MCF-7 extracts were analyzed for the presence of ERα by western blotting using GAPDH as a control. […] The western blot shown is representative of three independent experiments. The ratio of ERα to GAPDH levels in each experiment was determined densitometrically and normalized to control value (taken to be 1). (D) Effect of δ-tocols on estrogen response element-dependent luciferase activity in HELN cells, which are HELA cells transfected with either fully functional ERα or ERβ or their mutated versions containing a deletion the AB domain (ΔAB). […] Data shown are the mean values ± SEM from three independent experiments. […] Cells were treated with 500 μM δ-tocols in the presence or in the absence of ICI. The relative expression of TGFα, PR, and Ps2 (TFF1) after 16 h was analyzed by quantitative RT-PCR. Data shown are the mean values ± SEM from three independent experiments.

MCF-7 (ER(+)) cells = test: Cell proliferation assay (sulforhodamine B); assay type: cell-based, human
Method: (§1) MCF-7 (ER(+)), T47D (ER(+)), and MDA-MB-231 (ER(−)) cell lines were from ATCC. Cell lines were maintained at 37°C in a humidified incubator in a 5% CO2-enriched atmosphere in T-75 flasks. […] Cells were grown for 24 h before treatment in phenol red-free medium containing 5% DCC-FCS. Cells were seeded into 96-well plates at 2000 cells/well. Treatment media (150 μl/well) was added on the following day and replaced at 48-h intervals until the end of the experiment. Cell density was measured via the sulforhodamine B method ([43]) after 0, 2, 4, 6, and 8 days. The absorbance of SRB was measured directly at 490 nm in the 96-well plates using a multiskan® multisoft reader from Labsystem.

T47D (ER(+)) cells = test: Cell proliferation assay (sulforhodamine B); assay type: cell-based, human
Method: as §1

MDA-MB-231 (ER(−)) cells = test: Cell proliferation assay (sulforhodamine B); assay type: cell-based, human; conditions: 500 μM δ-TP or δ-TT; 30 μM lovastatin; 6-day period
Method: MCF-7 (ER(+)), T47D (ER(+)), and MDA-MB-231 (ER(−)) cell lines were from ATCC. Cell lines were maintained at 37°C in a humidified incubator in a 5% CO2-enriched atmosphere in T-75 flasks. MCF-7, T47D, and MDA-MB-231 cells were grown routinely in phenol red RPMI 1640 medium supplemented with 5% FBS (Gibco BRL, Life Technologies, Cergy Pontoise, France) and with penicillin–streptomycin. Cells were grown for 24 h before treatment in phenol red-free medium containing 5% DCC-FCS. Cells were seeded into 96-well plates at 2000 cells/well. Treatment media (150 μl/well) was added on the following day and replaced at 48-h intervals until the end of the experiment. Cell density was measured via the sulforhodamine B method ([43]) after 0, 2, 4, 6, and 8 days. The absorbance of SRB was measured directly at 490 nm in the 96-well plates using a multiskan® multisoft reader from Labsystem.
Figure 4 Effect of tocol on ER(+) and ER(−) BC cell proliferation and HMG-CoA reductase activity. (A) Effect of δ-tocols on estrogen and non-estrogen-regulated growth of MCF-7, T47D, and MDA-MB-231 cells. […] Cells were also treated with 30 μM lovastatin (Lova) in the presence or absence of 5 mM M, as described in Section “Materials and Methods.” Values are shown as means and vertical bars represent SEM. The data were analyzed by two-way ANOVA, followed by Bonferroni post hoc test. ***P < 0.001, **P < 0.01, and *P < 0.05 in comparison with control or bare-linked specific control. Ns: not significant. (B) Effect of δ-TT on hydroxymethylglutaryl coenzyme A reductase (HMGR) activity in MCF-7, T47D, and MDA-MB-231 cells. […] Data shown are the mean values ± SEM from three independent experiments performed in triplicate.

[2] = 500 μM δ-TP or δ-TT, 30 μM lovastatin, 6-day period

| SMILES | IC50 (ERα) [µM] | IC50 (ERβ) [µM] | stimulation of luciferase expression (ER-dependent transcription) [1] | other results |
| --- | --- | --- | --- | --- |
| CC(C)=CCC/C(C)=C/CC/C(C)=C/CC[C@]1(C)CCc2cc(O)c(C)c(C)c2O1 [γ-TT, γ-tocotrienol] | 203 ± 25 | 205 ± 18 |  |  |
| CCCCN(C)C(=O)CCCCCCCCCCC1Cc2cc(O)ccc2C2CC[C@@]3(C)C(CC[C@@H]3O)C12 (stereo partly shown) [ICI 164,384, reference compound] |  |  |  | blockade of tocol-induced ER-dependent transcriptional activity ([1]; 1 μM ICI 164,384 with 500 μM δ-TP or δ-TT): blocked; blockade of δ-TP- and E2-induced stimulation of MCF-7 proliferation (MCF-7 (ER(+)) cells; 1 μM ICI 164,384): blocked; blockade of δ-TP- and E2-induced stimulation of T47D proliferation (T47D (ER(+)) cells; 1 μM ICI 164,384): blocked |
| CC[C@H](C)C(=O)O[C@H]1C[C@@H](C)C=C2C=C[C@H](C)[C@H](CC[C@@H]3C[C@@H](O)CC(=O)O3)[C@H]21 [lovastatin, reference compound] |  |  |  | effect on MCF-7 cell proliferation (MCF-7 (ER(+)) cells; [2]): inhibition of cell proliferation; effect on T47D cell proliferation (T47D (ER(+)) cells; [2]): inhibition of cell proliferation; effect on MDA-MB-231 cell proliferation (MDA-MB-231 (ER(−)) cells): inhibition of cell proliferation |
| CC(C)=CCC/C(C)=C/CC/C(C)=C/CC[C@]1(C)CCc2c(C)c(O)c(C)c(C)c2O1 [α-TT, α-tocotrienol] | 412 ± 22 | 388 ± 32 |  |  |
| Cc1c(O)cc2c(c1C)O[C@](C)(CCC[C@H](C)CCC[C@H](C)CCCC(C)C)CC2 [γ-TP, γ-tocopherol] | 227 ± 28 | 215 ± 16 |  |  |
| CC1=CC(=O)C=C(CC[C@](C)(O)CCC[C@H](C)CCC[C@H](C)CCCC(C)C)C1=O [δ-TPQuin, δ-tocopherylquinone] |  |  | did not stimulate the expression of luciferase | ERα (IC50) (ERα): did not bind and N.M.; ERβ (IC50) (ERβ): did not bind and N.M. |
| Cc1c(C)c2c(c(C)c1O)CC[C@@](C)(CCC[C@H](C)CCC[C@H](C)CCCC(C)C)O2 [α-TP, α-tocopherol] | 453 ± 30 | 431 ± 21 |  |  |
| Cc1cc(C(C)(C)C)c(O)c(C(C)(C)C)c1 [BHT, butylated hydroxytoluene, reference compound] |  |  | did not stimulate the expression of luciferase |  |
| CC(C)(Sc1cc(C(C)(C)C)c(O)c(C(C)(C)C)c1)Sc1cc(C(C)(C)C)c(O)c(C(C)(C)C)c1 [Probucol, probucol, reference compound] |  |  | did not stimulate the expression of luciferase |  |
